The values that follow come from ChEMBL document CHEMBL5291721, “A preclinical secondary pharmacology resource illuminates target-adverse drug reaction associations of marketed drugs” (Nat Commun, 2023).

Each structure is given as a SMILES string.

In assay [1] the target is Vasopressin V1a receptor (Homo sapiens, UniProt P37288).
The target in assay [2] is Cannabinoid receptor 1 (Homo sapiens, UniProt P21554).
For assay [3], the target named is T1, D(1A) dopamine receptor (Homo sapiens, UniProt P21728).
Assay [4] deals with T2, Estrogen receptor (Homo sapiens, UniProt P03372).
T2 sequence (P03372 whole entry): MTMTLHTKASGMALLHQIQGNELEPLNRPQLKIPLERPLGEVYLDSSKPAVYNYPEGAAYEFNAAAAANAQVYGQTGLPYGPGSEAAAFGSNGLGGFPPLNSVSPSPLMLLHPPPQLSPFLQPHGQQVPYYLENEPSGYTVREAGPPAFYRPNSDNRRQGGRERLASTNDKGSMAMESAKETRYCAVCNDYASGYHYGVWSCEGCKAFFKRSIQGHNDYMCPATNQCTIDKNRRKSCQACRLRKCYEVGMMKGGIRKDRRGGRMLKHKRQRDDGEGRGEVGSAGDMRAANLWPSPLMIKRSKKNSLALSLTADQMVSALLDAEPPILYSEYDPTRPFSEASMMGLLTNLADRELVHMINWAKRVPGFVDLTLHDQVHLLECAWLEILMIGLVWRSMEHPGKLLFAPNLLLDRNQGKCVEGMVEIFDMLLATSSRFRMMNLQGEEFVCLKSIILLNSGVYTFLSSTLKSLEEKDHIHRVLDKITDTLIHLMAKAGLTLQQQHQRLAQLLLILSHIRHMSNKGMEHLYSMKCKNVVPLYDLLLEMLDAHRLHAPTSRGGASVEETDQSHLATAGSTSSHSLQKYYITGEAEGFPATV

In assay [5] the target is Delta-type opioid receptor (Homo sapiens, UniProt P41143).
The target in assay [6] is T3, Mu-type opioid receptor (Homo sapiens, UniProt P35372).
Assay [7] addresses Prostaglandin G/H synthase 1 (Homo sapiens, UniProt P23219). It is filed as functional.
Assay [8] addresses Sodium-dependent noradrenaline transporter (Homo sapiens, UniProt P23975).
Assay [9] addresses T3, Mu-type opioid receptor. The source holds these as a separate data set.
Assay [10] has as its target T4, Muscarinic acetylcholine receptor M2 (Homo sapiens, UniProt P08172).
T4 sequence (P08172 whole entry): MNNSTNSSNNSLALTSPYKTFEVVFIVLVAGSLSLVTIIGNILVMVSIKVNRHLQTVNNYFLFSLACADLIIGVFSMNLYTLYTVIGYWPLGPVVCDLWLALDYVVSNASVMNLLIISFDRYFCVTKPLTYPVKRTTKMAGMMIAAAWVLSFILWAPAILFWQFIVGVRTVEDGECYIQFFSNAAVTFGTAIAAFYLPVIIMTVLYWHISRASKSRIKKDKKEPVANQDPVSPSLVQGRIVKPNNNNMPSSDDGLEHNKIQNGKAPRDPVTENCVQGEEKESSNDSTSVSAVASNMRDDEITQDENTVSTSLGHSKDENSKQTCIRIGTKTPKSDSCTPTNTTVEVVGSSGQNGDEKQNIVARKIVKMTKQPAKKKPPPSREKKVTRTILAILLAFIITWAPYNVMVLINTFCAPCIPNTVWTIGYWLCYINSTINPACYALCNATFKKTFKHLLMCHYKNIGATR
The assay is classed as functional, cell-based.

The target of assay [11] is T1, D(1A) dopamine receptor. It is filed as functional, cell-based.
Assay [12] addresses T5, Prostaglandin G/H synthase 1 (Rattus norvegicus, UniProt Q63921).
T5 sequence (Q63921 whole entry): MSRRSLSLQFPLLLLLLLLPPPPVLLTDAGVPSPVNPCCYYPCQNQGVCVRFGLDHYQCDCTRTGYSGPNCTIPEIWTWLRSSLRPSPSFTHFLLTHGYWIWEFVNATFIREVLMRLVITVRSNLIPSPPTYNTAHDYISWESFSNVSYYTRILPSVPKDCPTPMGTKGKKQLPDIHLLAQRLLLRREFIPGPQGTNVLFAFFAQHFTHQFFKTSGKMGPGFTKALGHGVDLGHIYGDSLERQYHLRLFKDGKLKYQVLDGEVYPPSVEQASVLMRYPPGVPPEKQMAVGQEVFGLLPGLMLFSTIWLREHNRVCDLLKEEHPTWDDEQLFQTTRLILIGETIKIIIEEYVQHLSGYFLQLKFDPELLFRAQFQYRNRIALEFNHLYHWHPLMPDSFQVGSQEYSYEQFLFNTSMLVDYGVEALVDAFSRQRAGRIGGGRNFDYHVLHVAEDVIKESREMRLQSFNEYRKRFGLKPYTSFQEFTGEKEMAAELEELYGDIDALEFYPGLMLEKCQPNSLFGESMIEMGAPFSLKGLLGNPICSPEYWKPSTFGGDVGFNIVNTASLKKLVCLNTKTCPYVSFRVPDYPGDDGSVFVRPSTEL
It is filed as functional.
Also: assay procedure not described here.

T3 sequence (P35372 whole entry): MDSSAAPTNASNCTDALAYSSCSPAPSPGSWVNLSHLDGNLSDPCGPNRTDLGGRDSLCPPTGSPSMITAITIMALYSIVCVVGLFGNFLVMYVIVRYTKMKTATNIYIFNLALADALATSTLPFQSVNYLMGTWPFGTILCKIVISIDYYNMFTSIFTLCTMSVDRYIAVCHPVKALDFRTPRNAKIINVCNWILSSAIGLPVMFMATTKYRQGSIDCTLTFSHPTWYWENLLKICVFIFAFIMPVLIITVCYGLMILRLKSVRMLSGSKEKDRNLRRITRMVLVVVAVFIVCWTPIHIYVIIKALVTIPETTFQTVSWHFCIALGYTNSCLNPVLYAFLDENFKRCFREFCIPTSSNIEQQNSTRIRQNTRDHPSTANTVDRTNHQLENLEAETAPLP
Sequence of Vasopressin V1a receptor (P37288 whole entry): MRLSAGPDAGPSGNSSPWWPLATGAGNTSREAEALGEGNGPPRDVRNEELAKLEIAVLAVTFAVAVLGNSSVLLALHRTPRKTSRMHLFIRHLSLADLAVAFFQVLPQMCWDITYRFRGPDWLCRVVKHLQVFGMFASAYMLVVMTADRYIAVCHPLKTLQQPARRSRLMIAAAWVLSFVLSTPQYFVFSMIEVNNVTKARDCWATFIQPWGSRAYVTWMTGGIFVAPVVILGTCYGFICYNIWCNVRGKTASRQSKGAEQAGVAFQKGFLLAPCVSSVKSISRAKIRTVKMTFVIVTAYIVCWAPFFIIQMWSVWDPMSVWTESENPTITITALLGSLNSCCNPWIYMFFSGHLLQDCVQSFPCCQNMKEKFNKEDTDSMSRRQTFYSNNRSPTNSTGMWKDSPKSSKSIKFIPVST
T1 sequence (P21728 whole entry): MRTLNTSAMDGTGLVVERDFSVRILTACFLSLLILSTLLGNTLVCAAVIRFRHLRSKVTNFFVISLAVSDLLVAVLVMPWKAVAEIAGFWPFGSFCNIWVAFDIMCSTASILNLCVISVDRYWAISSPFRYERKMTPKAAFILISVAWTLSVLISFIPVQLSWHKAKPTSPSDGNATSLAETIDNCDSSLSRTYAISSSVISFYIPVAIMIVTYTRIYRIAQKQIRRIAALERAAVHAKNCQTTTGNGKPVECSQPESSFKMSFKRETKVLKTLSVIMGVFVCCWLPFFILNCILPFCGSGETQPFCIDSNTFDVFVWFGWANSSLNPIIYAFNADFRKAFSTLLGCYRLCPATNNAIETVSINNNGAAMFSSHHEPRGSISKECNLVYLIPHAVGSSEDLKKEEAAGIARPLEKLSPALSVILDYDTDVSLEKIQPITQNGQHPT
Sequence of Delta-type opioid receptor (P41143 whole entry): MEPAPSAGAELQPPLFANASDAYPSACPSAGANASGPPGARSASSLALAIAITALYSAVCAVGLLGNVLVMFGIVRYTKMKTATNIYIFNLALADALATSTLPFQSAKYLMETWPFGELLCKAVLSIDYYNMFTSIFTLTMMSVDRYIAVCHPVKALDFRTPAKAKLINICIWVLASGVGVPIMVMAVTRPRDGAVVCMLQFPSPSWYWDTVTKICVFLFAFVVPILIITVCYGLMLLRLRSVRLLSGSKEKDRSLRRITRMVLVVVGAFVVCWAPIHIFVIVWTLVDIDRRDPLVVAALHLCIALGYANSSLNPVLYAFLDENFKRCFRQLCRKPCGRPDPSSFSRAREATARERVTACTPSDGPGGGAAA
Sequence of Cannabinoid receptor 1 (P21554 whole entry): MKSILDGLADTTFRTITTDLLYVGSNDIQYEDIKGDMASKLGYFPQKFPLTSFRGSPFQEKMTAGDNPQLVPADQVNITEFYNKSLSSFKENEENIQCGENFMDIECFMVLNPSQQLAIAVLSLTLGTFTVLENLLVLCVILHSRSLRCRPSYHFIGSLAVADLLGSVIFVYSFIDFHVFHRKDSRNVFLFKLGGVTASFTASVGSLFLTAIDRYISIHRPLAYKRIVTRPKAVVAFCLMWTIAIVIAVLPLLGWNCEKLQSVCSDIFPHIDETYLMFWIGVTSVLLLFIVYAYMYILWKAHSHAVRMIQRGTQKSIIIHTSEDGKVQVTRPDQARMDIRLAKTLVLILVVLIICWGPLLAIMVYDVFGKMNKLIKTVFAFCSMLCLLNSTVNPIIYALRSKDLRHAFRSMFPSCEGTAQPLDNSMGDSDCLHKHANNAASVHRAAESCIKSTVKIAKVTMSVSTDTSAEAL
Sequence of Sodium-dependent noradrenaline transporter (P23975 whole entry): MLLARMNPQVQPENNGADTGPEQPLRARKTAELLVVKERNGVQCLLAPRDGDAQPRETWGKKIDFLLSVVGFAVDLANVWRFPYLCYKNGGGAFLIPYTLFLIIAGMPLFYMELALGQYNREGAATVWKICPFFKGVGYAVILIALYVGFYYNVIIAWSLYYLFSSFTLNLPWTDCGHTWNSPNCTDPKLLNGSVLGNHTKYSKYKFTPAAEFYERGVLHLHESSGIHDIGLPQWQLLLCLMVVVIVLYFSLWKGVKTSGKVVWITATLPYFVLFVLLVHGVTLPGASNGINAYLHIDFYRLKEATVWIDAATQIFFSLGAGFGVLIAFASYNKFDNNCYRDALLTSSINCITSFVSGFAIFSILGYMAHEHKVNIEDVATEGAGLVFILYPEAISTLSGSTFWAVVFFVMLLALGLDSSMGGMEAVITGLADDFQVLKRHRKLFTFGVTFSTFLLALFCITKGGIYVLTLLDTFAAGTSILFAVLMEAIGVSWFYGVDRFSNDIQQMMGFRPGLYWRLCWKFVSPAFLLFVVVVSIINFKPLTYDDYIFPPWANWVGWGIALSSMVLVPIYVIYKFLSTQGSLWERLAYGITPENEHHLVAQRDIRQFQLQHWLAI
Sequence of Prostaglandin G/H synthase 1 (Homo sapiens, UniProt P23219) (P23219 whole entry): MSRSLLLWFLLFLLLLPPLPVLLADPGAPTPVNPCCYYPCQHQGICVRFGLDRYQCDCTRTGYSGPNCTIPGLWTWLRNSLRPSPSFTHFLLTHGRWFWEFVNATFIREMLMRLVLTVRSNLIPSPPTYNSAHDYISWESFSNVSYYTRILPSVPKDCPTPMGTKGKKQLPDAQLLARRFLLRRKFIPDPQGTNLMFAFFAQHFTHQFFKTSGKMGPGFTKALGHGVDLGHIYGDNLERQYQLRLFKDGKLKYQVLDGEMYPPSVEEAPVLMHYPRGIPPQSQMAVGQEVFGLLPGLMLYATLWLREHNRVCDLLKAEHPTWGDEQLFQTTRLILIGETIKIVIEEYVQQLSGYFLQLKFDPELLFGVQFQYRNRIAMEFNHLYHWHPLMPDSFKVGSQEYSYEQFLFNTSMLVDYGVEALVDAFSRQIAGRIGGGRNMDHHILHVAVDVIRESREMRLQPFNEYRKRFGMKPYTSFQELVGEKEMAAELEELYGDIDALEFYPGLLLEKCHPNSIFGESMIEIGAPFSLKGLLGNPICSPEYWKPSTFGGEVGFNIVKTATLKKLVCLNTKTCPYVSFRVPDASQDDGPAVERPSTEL

Turning to `O=C(/C=C/c1cccc(S(=O)(=O)Nc2ccccc2)c1)NO` [BELINOSTAT], the AC50 in [1] was over 10 µM; in [2], over 10 µM; in assay [3], over 30 µM; in assay [4], over 30 µM; in [5], over 30 µM; in assay [6], over 30 µM. For the same compound, the results for the AC50 in assay [7], in [8] and in assay [9] were 5.61 µM, over 10 µM and over 30 µM, respectively.
On to `C[C@]12C=CC(=O)C=C1CC[C@@H]1[C@@H]2CC[C@]2(C)OC(=O)CC[C@@H]12` [TESTOLACTONE], for which the AC50 in assay [1] was over 10 µM; in assay [10], over 10 µM; in [2], over 10 µM; in assay [11], over 10 µM; in assay [4] it was over 10 µM; in assay [5], over 30 µM. In addition, the AC50 in [12] is over 10 µM; in [8], over 10 µM; in assay [9] it was over 30 µM.
